# Measured values as given in the supplement of paper PMC9386025.
# How the values were obtained:
# Experiment in all cases: drug sensitivity score (DSS) (DSS (dimensionless)); higher = more sensitive (stronger drug response)
# FIMM-PDC4 = patient-derived ovarian cancer cells; details: genetic perturbation: none (patient-derived cell culture)
# Procedure, shortened: (§1)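 Ovarian cancer cell lines, with shRNA induced by 100 ng/ml doxycycline for at least three days, and patient-derived cultures were seeded at 1 000 – 1 500 cells per well in 384-well plates holding drugs pre-plated in five concentrations over a 10,000-fold range. After three days at 37 °C and 5.0 % CO2, viability was read as CellTiter-Glo luminescence on a PHERAstar FS. Each drug's dose-response curve was summarised as a drug sensitivity score calculated as previously described.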
# JHOS2 = test system: JHOS2
# Procedure, shortened: as §1
# FIMM-PDC5 = patient-derived ovarian cancer cells; details: genetic perturbation: none (patient-derived cell culture)
# Procedure, shortened: as §1
# FIMM-PDC7 = patient-derived ovarian cancer cells; details: genetic perturbation: none (patient-derived cell culture)
# Procedure, shortened: as §1
# FIMM-PDC3 = patient-derived ovarian cancer cells; details: genetic perturbation: none (patient-derived cell culture)
# Procedure, shortened: as §1
# Kuramochi = test system: Kuramochi
# Procedure, shortened: as §1
# FIMM-PDC6 = patient-derived ovarian cancer cells; details: genetic perturbation: none (patient-derived cell culture)
# Procedure, shortened: as §1
# OVSAHO = test system: OVSAHO
# Procedure, shortened: as §1
# FIMM-PDC1 = patient-derived ovarian cancer cells; details: genetic perturbation: none (patient-derived cell culture)
# Procedure, shortened: as §1
# [1] = genetic perturbation: DOX-induced PTK7 shRNA knockdown
# [2] = genetic perturbation: DOX-induced control shRNA
Compound,drug sensitivity score (FIMM-PDC4),drug sensitivity score (JHOS2; [1]),drug sensitivity score (JHOS2; [2]),drug sensitivity score (FIMM-PDC5),drug sensitivity score (FIMM-PDC7),drug sensitivity score (FIMM-PDC3),drug sensitivity score (Kuramochi; [1]),drug sensitivity score (Kuramochi; [2]),drug sensitivity score (FIMM-PDC6),drug sensitivity score (OVSAHO; [1]),drug sensitivity score (OVSAHO; [2]),drug sensitivity score (FIMM-PDC1)
Nc1nc2cc(-c3ccc4ncc(C(=O)N5CCOCC5)n4c3)ccc2o1 [Serabelisib],4.1,0.9,0.2,5.2,9.1,0.6,< 0,< 0,3.1,0.8,< 0,0.6
CCn1cc(-c2ccnc3[nH]c(-c4cccc(CN(C)C)c4)cc23)c(-c2ccc(NC(=O)N(C)C)cc2)n1,2.9,< 0,0.4,4.1,0.2,2.8,< 0,< 0,< 0,0.4,< 0,2.25
NC(=O)N1CCC(CC(=O)N2CCC([C@H]3c4ncc(Br)cc4CCc4cc(Cl)cc(Br)c43)CC2)CC1 [Lonafarnib],6.3,5.5,9,7,10,9.3,8.85,8.7,9.8,9.4,9.9,9.45
CC(C)(C)c1cc(NC(=O)Nc2ccc(Oc3ccnc4[nH]c(=O)cnc34)cc2F)n(-c2ccccc2)n1,0.7,1.8,8.3,0.3,0.3,4.2,2.15,9.4,0.4,3.9,9.1,3.9
C[C@H]1O[C@@H](O[C@H]2[C@@H](O)C[C@H](O[C@H]3[C@@H](O)C[C@H](O[C@H]4CC[C@@]5(C)[C@H](CC[C@@H]6[C@@H]5C[C@@H](O)[C@]5(C)[C@@H](C7=CC(=O)OC7)CC[C@]65O)C4)O[C@@H]3C)O[C@@H]2C)C[C@H](O)[C@@H]1O [Digoxin],14.6,17.2,13,11.9,12.5,12,8.45,7.4,16.6,8.6,8,9.4
O=C(NOCCO)c1ccc2cncn2c1Nc1ccc(I)cc1F [GDC-0623],7.4,< 0,10,6.9,9,1.8,1.4,1.5,< 0,0.4,1.5,< 0
Nc1cc(C(F)(F)F)c(-c2cc(N3CCOCC3)nc(N3CCOCC3)n2)cn1 [Buparlisib],9.7,6.4,4.6,12.2,10.8,7.1,7.25,4.6,7.8,7.2,6.6,5.4
COc1cc([C@@H]2c3cc4c(cc3[C@@H](O[C@@H]3O[C@@H]5CO[C@@H](C)O[C@H]5[C@H](O)[C@H]3O)[C@H]3COC(=O)[C@H]23)OCO4)cc(OC)c1O [Etoposide],1.8,4.7,2.1,1.9,1,4.8,0.5,2,2.9,2.7,< 0,2.55
O=C(/C=C/c1cccc(S(=O)(=O)Nc2ccccc2)c1)NO [Belinostat],5.5,13,9.4,12.3,10,14.1,17.6,7.6,13,15.2,9.7,9.65
Nc1nc(Cl)nc2c1ncn2[C@@H]1O[C@H](CO)[C@@H](O)[C@@H]1F [Clofarabine],7.4,15.1,10.3,13.6,3.2,6.1,< 0,< 0,3.2,2.5,3.4,3.15
CC[C@H](NC(=O)[C@H](C)NC)C(=O)N1C[C@@H](O)C[C@H]1Cc1c(-c2[nH]c3cc(F)ccc3c2C[C@@H]2C[C@H](O)CN2C(=O)[C@H](CC)NC(=O)[C@H](C)NC)[nH]c2cc(F)ccc12 [Birinapant],< 0,17.4,16.7,0.6,< 0,11.7,3.9,3.6,4.1,5.7,2.1,6.4
C=CC(=O)N1CC/C(=C\c2ccc(F)c([N+](=O)[O-])c2)C(=O)/C(=C/c2ccc(F)c([N+](=O)[O-])c2)C1 [VLX1570],16.9,25.9,15.3,22.3,20.5,18.5,23.4,16.4,19.6,23.2,19.4,12.1
Nc1ncnc2c1nc(Cl)n2[C@@H]1O[C@H](CO)[C@@H](O)[C@H]1O [8-chloro-adenosine],5.9,12.9,9.4,20.2,13.8,6,5.75,12.1,10.4,18.4,6.9,7.45
COc1cc2ncnc(Nc3ccc(F)c(Cl)c3)c2cc1NC(=O)/C=C/CN1CCCCC1 [Dacomitinib],18.2,< 0,2,23.4,14,13.1,2.45,1.6,18,4.8,2.4,3.2
CN(C)CC#Cc1ccc(OCCCc2sc(N3CCc4cccc(C(=O)Nc5nc6ccccc6s5)c4C3)nc2C(=O)O)c(F)c1,14.1,6.3,0.5,31.9,19.3,16.8,4.55,9.9,30.1,23.3,2.6,18.7
Nc1cc(F)ccc1NC(=O)c1ccc(CNC(=O)/C=C/c2cccnc2)cc1 [Tucidinostat],3.5,2,2.1,7.3,7.4,7.7,6.65,1.5,6.3,6.5,2.1,5.9

Compound,drug sensitivity score (FIMM-PDC4),drug sensitivity score (JHOS2; [1]),drug sensitivity score (JHOS2; [2]),drug sensitivity score (FIMM-PDC5),drug sensitivity score (FIMM-PDC7),drug sensitivity score (FIMM-PDC3),drug sensitivity score (Kuramochi; [1]),drug sensitivity score (Kuramochi; [2]),drug sensitivity score (FIMM-PDC6),drug sensitivity score (OVSAHO; [1]),drug sensitivity score (OVSAHO; [2]),drug sensitivity score (FIMM-PDC1)
COc1cc2ncnc(Nc3ccc(F)c(Cl)c3)c2cc1OCCCN1CCOCC1 [Gefitinib],15.2,3.5,3.5,18.6,10.7,10.9,4.3,3.3,13,7.7,4.1,3.4
CON(C)C(=O)N1N=C(c2cc(F)ccc2F)S[C@@]1(CCCN)c1ccccc1 [Filanesib],12.3,9.2,3,17.4,2.9,10.7,10.3,1.1,6.6,7.8,6.8,6.65
CCn1c(=O)c(-c2ccc(Cl)cc2Cl)cc2cnc(Nc3ccc(N4CCNCC4)c(F)c3)nc21 [FRAX486],9.3,4.5,8,14.7,6.5,6.5,3.7,7.6,9.7,10.8,4.8,4.5
CN[C@@H](C)C(=O)N[C@H](C(=O)N1CCC[C@H]1c1nc(C(=O)c2ccc(F)cc2)cs1)C1CCCCC1 [NVP-LCL161],1.7,26,20.4,2.7,5.1,15.7,3.65,4.2,6.9,6,4.1,14.1
O=C(NOC[C@H](O)CO)c1ccc(F)c(F)c1Nc1ccc(I)cc1F,9.4,0.6,6.2,7.8,3.1,3,5.9,4,3.9,4.6,4.2,< 0
CCc1cnn2c(NCc3ccc[n+]([O-])c3)cc(N3CCCC[C@H]3CCO)nc12 [Dinaciclib],20.3,17.4,19.6,24.6,22.4,17.5,18.5,15.9,22.5,24.8,16.4,20.8
COc1cc(Nc2ncc(F)c(Nc3ccc4c(n3)NC(=O)C(C)(C)O4)n2)cc(OC)c1OC [Tamatinib],6.4,4.2,0.1,12.9,8.6,3.8,2.9,1.1,1.6,7,1.1,< 0
CO[C@H]1C[C@@H]2CC[C@@H](C)[C@@](O)(O2)C(=O)C(=O)N2CCCC[C@H]2C(=O)O[C@H]([C@H](C)C[C@@H]2CC[C@@H](OCCO)[C@H](OC)C2)CC(=O)[C@H](C)/C=C(\C)[C@@H](O)[C@@H](OC)C(=O)[C@H](C)C[C@H](C)/C=C/C=C/C=C/1C [Everolimus],5.3,< 0,3,8.3,0.4,2.7,4.1,2.2,< 0,0.9,6.2,< 0
Cn1cc(CNCC2CCN(c3ncc(C(=O)NO)cn3)CC2)c2ccccc21 [Quisinostat],5.1,10.9,12.5,14.6,8.6,16.5,17.4,6.5,11.8,13.6,12,11
CCN(CC)CCNC(=O)c1c(C)[nH]c(/C=C2\C(=O)Nc3ccc(-c4csc(-c5ccccc5)n4)cc32)c1C [Amcasertib],< 0,8.4,< 0,0.3,5.3,2.6,4.6,< 0,< 0,1.6,0.8,< 0
CCN(CC)CCCC(C)Nc1c2ccc(Cl)cc2nc2ccc(OC)cc12 (configuration not stated) [Mepacrine],17.1,18.8,12.1,18,12.3,13.8,12.7,10.8,15.9,15.2,11.7,13.6
CO[C@H]1C[C@@H]2CC[C@@H](C)[C@@](O)(O2)C(=O)C(=O)N2CCCC[C@H]2C(=O)O[C@H]([C@H](C)C[C@@H]2CC[C@@H](OC(=O)C(C)(CO)CO)[C@H](OC)C2)CC(=O)[C@H](C)/C=C(\C)[C@@H](O)[C@@H](OC)C(=O)[C@H](C)C[C@H](C)/C=C/C=C/C=C/1C [Temsirolimus],8.7,< 0,7.2,12.2,4,2.8,4.5,2.7,5.7,2.3,6.6,2.25
O=C(O)C(=O)O.[NH-][C@@H]1CCCC[C@H]1[NH-].[Pt+2] [Oxaliplatin],5,8.2,6.2,11.2,11.5,17.3,8.65,5.8,7.8,9.9,5.9,5.4
O=C(O)C1(C(=O)O)CCC1.[NH2-].[NH2-].[Pt+2] [Carboplatin],3.2,7.6,5.3,3.8,2.4,16.2,4.4,4.7,2.8,8.7,2.7,2.55
CN[C@@H]1C[C@H]2O[C@@](C)([C@@H]1OC)n1c3ccccc3c3c4c(c5c6ccccc6n2c5c31)C(=O)N[C@H]4O [UCN-01],26.4,21.2,21.5,29.6,28.4,22.2,12.3,16.2,24,24.7,15.2,26.5
